For one molecule, Kd and Activity results are on record in ChEMBL document CHEMBL4190382, “Targeting lysine specific demethylase 4A (KDM4A) tandem TUDOR domain - A fragment based approach” (Bioorg Med Chem Lett, 2018).

Active and inactive are the calls of the source. The calls are words filed in the database; no cut-off is given here.

The target in assay [1] is T1, Lysine-specific demethylase 4B (Homo sapiens, UniProt O94953).
T1 sequence (O94953 whole entry): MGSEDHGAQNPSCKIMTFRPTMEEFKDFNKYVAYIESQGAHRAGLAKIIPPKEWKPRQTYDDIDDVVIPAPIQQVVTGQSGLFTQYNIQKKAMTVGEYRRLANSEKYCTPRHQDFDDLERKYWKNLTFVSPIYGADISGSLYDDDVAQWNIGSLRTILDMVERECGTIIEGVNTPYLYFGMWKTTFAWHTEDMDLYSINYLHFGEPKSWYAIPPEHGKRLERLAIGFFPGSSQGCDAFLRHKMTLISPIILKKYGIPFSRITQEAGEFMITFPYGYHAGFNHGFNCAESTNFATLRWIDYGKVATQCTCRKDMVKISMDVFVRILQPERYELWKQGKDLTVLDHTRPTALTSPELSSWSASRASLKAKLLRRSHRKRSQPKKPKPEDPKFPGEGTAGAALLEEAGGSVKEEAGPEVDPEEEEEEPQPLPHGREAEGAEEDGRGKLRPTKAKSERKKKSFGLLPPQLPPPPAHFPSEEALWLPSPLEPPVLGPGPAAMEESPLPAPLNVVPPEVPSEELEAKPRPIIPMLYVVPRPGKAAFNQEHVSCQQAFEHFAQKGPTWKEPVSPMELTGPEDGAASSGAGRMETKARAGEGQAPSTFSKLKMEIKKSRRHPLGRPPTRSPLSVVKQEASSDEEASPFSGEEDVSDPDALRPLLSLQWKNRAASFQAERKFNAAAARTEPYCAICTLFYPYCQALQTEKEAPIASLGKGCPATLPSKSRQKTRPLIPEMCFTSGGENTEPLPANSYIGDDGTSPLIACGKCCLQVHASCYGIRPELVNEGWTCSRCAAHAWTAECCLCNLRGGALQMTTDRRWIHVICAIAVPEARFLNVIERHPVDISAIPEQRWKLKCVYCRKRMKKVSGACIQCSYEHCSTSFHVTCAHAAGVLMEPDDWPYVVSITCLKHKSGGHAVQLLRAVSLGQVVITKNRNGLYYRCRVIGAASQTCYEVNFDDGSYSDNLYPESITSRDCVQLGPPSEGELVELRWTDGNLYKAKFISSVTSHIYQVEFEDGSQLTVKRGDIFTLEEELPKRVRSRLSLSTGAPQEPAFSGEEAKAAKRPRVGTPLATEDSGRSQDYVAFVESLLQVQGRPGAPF
Nature of the assay: Binding affinity to 6His-tagged and human KDM4B tandem TUDOR domain (916 to 1030 residues) expressed in Escherichia coli BL21(DE3)-T1R by ITC method. For orientation: ITC needs no label: the signal is the heat of the interaction.

Assay [2] concerns T2, Lysine-specific demethylase 4A (Homo sapiens), O75164 [F932A].
T2 sequence (whole entry): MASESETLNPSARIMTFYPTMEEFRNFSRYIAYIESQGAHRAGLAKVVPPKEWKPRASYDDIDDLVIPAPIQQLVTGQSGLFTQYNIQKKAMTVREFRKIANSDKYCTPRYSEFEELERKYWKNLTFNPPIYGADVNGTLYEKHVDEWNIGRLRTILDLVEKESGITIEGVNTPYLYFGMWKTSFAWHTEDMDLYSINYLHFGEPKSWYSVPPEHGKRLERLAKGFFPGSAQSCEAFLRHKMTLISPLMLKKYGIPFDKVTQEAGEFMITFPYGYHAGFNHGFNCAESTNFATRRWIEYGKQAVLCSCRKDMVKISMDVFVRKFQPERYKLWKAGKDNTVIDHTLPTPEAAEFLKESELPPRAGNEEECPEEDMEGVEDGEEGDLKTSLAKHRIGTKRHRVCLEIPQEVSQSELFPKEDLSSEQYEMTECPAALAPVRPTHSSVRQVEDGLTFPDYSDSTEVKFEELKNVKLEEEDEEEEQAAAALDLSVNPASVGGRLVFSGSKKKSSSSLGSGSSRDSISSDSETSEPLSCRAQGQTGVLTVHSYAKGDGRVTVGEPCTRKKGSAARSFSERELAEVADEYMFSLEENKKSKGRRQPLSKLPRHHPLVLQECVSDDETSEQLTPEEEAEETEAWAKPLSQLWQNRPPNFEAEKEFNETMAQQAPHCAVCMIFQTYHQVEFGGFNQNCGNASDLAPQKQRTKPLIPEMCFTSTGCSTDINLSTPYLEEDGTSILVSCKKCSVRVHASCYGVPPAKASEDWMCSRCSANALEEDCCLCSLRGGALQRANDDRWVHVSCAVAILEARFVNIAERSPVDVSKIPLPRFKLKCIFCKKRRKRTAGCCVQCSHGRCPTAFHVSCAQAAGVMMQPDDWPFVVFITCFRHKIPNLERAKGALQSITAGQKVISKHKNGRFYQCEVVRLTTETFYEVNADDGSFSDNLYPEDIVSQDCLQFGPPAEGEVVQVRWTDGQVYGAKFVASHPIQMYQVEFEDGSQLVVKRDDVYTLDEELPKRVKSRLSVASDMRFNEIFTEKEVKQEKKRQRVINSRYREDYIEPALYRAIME
Nature of the assay: Binding affinity to thrombin cleavable N-terminal 6His tagged and 13C-IVLM labeled human KDM4A tandem TUDOR domain (897 to 1011 residues) F932A mutant expressed in Escherichia coli BL21(DE3)-T1R by ITC method.

`CN(C)C[C@H]1C2CCC(c3ccccc3)(C2)[C@H]1O` (some centres not stated) returned a Kd in assay [1] of 127 µM. In addition, the outcome in assay [2] was inactive.

As a reminder, the Kd is the constant that tells how readily two partners part at equilibrium.
